Experimental data from patent publication US20240287564A1, “ACHOLETIN BIOPOLYMERS AND METHODS FOR ENZYMATIC SYNTHESIS” (THE UNIVERSITY OF BRITISH COLUMBIA, priority 2021, published 2024).

Experiments:
AchP [1] = biological target: T1, AchP (Acholeplasma laidlawii, UniProt A9NH41); assay: AchP reverse phosphorolysis kinetics (phosphate release, molybdenum blue); type: biochemical; details: as donor (GalNAc1-P) or acceptor (glucose); reasonable substrate and enzyme concentrations
AchP [2] = biological target: T1, AchP; assay: Purified AchP donor and acceptor specificity screen; type: biochemical; details: 3 h room temperature, absorbance 655 nm
Method: AchP was heterologously expressed, purified and screened, in the absence of cell lysate, against an extended set of donors and acceptors, including additional N-acetamido sugars, using a phosphorylase screening method described previously that couples the chromogenic development of molybdenum blue to the liberation of free phosphate during reverse phosphorolysis^39,41 (FIG. 1A). When incubated with Glc1-P as donor, AchP was active in the presence of the acceptors GlcNAc, GlcNAc-β1-pNP, GalNAc and GlcNAc-β1,4-GlcNAc, while no activity was detected with the non-acetylated glucosamine and galactosamine. With GlcNAc1-P as donor, AchP was active with all acceptors that contained an N-acetyl moiety, as well as with glucose and glucosamine, but not galactose and galactosamine.
Thirty-six donor and acceptor combinations were done with purified AchP in a 25 μL reaction volume. 10 μL buffer (200 mM HEPES pH 7.0, 200 mM NaCl, 10 mM MgSO4, 400 mM sodium molybdate) was combined with 5 μL water, 2.5 μL donor (100 mM Glc1-P, 100 mM GlcNAc1-P or 100 mM GalNAc1-P) and 2.5 acceptor (500 mM Glc, 400 mM GlcN, 500 mM GlcNAc, 100 mM GlcNAc-β1-pNP, 500 mM Gal, 500 mM GalN, 500 mM GalNAc, 100 mM GalNAc-α1-pNP, 100 mM Glc-β1,3-Glc, 100 mM GlcNAc-β1,4-GlcNAc, 500 mM ManNAc or no acceptor) in a 200 μL PCR tube. 5 μL of purified AchP (0.2 mg/mL) was added to each reaction which were then incubated for 3 h at room temperature. Each 25 μL reaction was transferred to a separate well of a 96-well plate. 75 μL of development solution was added to each well then incubated for 5 min at room temperature before the reaction was stopped by adding 50 μL of quenching solution. Absorbance at 655 nm was measured with a BioTek Synergy H1 Hybrid™ microtiter plate reader.

AchP [3] = biological target: T1, AchP; assay: AchP reverse phosphorolysis kinetics (phosphate release, molybdenum blue); type: biochemical
Method: (§1) Kinetic parameters for AchP reverse phosphorolysis were determined using the phosphate release method described previously^44. In brief, phosphate release was coupled to the formation of molybdenum blue, which can be quantified by measuring absorbance at 655 nm. Phosphate concentration was determined using a standard curve ranging between 0 and 10 mM phosphate. Kinetic parameters for AchP were determined with four donor and acceptor combinations: (A) Glc1-P and GlcNAc, (B) Glc1-P and GalNAc, (C) GlcNAc1-P and GlcNAc, and (D) GlcNAc1-P and GalNAc. Donor concentration was held constant at 10 mM while the concentrations of the acceptors were varied (as described below). Reactions were initiated by adding 5 μL of 0.25 mg/mL AchP to 10 μL 2× buffer (200 mM HEPES pH 7.0, 200 mM NaCl, 10 mM MgSO4 and 400 mM sodium molybdate), 2.5 μL of 100 mM donor, 2.5 μL of […] acceptor and 5 μL water. Reactions were stopped at the times (t) indicated below by boiling for 5 min, then 20 μL from each reaction was transferred to a 96-well plate. Molybdenum blue formation was initiated by adding 90 μL of color development solution (0.1 N HCl and 0.24% sodium ascorbate) then incubated for 30 min at room temperature. The color development reaction was stopped by adding 90 μL of quenching solution (68 mM sodium citrate and 2% acetic acid). Absorbance at 655 nm was measured with a BioTek Synergy H1 Hybrid™ microtiter plate reader. All reactions were performed in triplicate and acceptor concentrations were chosen to encompass apparent Km value where possible. (A) 10 mM Glc1-P; 0, 1, 5, 10, 25, 50, 100, 200 and 300 mM GlcNAc; t=2 min 45 s. (B) 10 mM Glc1-P; 0, 5, 25, 50, 100, 150, 200, 300 and 380 mM GalNAc; t=5 min. (C) 10 mM GlcNAc1-P; 0, 0.1, 0.25, 0.5, 1, 2, 5, 10, 25 and 50 mM GlcNAc; t=3 min. (D) 10 mM GlcNAc1-P; 0, 5, 10, 25, 50, 100, 150, 200 and 300 mM GalNAc; t=3 min. Non-linear regression was performed using GraphPad Prism™ version 6.0. For (A) and (C) data were fit using the Michaelis-Menten equation incorporating substrate inhibition: For (B) and (D) data were fit using the standard Michaelis-Menten equation: […]

[4] = biological target: GH101 endo-α-N-acetylgalactosamindase (EngSP) (Streptococcus pneumoniae, UniProt Q8DR60); details: only minimal aglycone release in controls
Sequence of GH101 endo-α-N-acetylgalactosamindase (EngSP) (Q8DR60 40-1738 limits assumed): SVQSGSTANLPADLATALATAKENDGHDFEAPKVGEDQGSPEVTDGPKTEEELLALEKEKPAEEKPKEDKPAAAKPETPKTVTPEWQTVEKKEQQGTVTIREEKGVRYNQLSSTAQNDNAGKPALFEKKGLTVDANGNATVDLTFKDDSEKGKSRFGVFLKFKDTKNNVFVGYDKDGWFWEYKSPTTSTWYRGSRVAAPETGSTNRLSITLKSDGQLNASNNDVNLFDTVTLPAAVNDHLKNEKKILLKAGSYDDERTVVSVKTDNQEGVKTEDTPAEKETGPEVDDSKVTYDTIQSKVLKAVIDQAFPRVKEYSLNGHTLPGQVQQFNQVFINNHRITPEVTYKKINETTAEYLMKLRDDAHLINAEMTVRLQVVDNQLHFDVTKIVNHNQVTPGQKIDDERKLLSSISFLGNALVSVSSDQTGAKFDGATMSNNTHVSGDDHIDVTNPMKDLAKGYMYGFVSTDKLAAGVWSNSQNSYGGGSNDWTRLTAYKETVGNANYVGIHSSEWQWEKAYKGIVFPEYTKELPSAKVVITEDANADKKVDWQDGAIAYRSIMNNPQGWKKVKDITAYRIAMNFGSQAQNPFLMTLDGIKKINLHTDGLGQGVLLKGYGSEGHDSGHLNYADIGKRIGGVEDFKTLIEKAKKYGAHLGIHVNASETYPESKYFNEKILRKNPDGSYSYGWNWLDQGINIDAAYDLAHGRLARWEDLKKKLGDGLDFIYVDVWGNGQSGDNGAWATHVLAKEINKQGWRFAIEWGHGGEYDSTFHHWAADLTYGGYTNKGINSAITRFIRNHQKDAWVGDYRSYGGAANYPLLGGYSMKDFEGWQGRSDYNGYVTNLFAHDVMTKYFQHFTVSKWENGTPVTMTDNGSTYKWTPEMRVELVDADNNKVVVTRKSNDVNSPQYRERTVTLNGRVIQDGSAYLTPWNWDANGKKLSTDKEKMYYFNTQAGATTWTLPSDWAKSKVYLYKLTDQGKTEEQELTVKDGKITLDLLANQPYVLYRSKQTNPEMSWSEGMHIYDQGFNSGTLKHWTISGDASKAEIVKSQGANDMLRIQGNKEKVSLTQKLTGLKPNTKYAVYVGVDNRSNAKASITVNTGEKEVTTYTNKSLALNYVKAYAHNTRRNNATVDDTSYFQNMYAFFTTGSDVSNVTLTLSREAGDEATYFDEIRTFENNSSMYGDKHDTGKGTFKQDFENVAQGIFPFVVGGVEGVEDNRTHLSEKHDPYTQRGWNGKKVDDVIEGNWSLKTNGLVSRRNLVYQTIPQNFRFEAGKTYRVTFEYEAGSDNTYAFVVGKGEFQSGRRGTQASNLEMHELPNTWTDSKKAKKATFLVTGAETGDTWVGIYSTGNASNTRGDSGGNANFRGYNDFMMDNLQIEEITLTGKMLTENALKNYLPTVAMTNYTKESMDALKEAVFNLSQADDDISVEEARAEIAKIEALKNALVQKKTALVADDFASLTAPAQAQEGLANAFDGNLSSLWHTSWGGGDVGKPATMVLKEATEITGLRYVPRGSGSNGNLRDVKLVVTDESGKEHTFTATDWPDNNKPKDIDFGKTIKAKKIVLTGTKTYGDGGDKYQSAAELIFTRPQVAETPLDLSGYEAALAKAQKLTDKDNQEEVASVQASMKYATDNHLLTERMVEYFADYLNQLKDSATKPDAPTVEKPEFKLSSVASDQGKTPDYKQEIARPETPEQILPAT
Method: Both GlcNAc-β1,3-GalNAc-MU and GlcNAc-β1,3-GalNAc-pNP were assayed as potential substrates for the core 3 T-antigen cleaving enzyme endo-α-N-acetylgalactosaminidase from Streptococcus pneumoniae R6 (EngSP)^47,66. For GlcNAc-β1,3-GalNAc-MU, in a 96-well plate 2 μL of the AchP reaction was combined with 48 μL reaction buffer A and reaction initiated by adding 0.4 μL spGH101 (10 mg/mL). Release of MU was monitored continuously in a BioTek Synergy H1 Hybrid™ microtiter plate reader (Ex. 365 nm, Em. 440 nm) (FIG. 6). For GlcNAc-β1,3-GalNAc-pNP, in a 96-well plate 10 μL of the AchP reaction was combined with 39 μL reaction buffer A and initiated by adding 1 μL EngSP (10 mg/mL). Release of pNP was monitored continuously in a BioTek Synergy H1 Hybrid™ microtiter plate reader (absorbance 400 nm) (FIG. 6).

AchP [5] = biological target: T1, AchP; assay: AchP forward phosphorolysis product analysis (TLC); type: biochemical; details: with phosphate
Method: (A) AchP products with GlcNAc1-P (donor) and GlcNAc (GNAc1), GlcNAc-β1,4-GlcNAc (GNAc2), or GlcNAc(-β1,4-GlcNAc)3 (GNAc4) (acceptors) were analyzed by TLC, where the products are outlined in black boxes. (B) AchP forward phosphorolysis product analysis with GlcNAc-β1,4-GlcNAc and phosphate and the reverse phosphorolysis with Glc1-P and GlcNAc was include as a control reaction.
Of the six activities described to date in the GH94 family only the N,N′-diacetylchitobiose phosphorylases (ChbP) are known to use GlcNAc1-P as donor, transferring only to monosaccharide GlcNAc acceptors and not to di- or trisaccharides. The other five types utilize Glc1-P. The bacteria from which both characterized ChbPs were discovered are native to marine environments where chitin, a polysaccharide of β1,4-linked GlcNAc and the primary structural component of the exoskeleton of marine invertebrates, is common. Presumably these ChbPs act on disaccharides released from chitin by chitinases. AchP on the other hand is able to utilize GlcNAc-β1,4-GlcNAc and GlcNAc(-β1,4-GlcNAc)3 as acceptors performing iterative addition of N-acetylglucosaminyl residues (FIG. 4A). As noted earlier, we initially anticipated that AchP was a chitin phosphorylase. […]

[6] = substrate: CC(=O)NC1C(O)[C@@H](O)C(CO)O[C@@H]1O; assay: AchP reverse phosphorolysis kinetics (phosphate release, molybdenum blue); type: biochemical, Acholeplasma laidlawii; details: other: donor αGlcNAc1-P 10 mM; acceptor concentration varied; pH 7.0
Method: as §1

[7] = substrate: CC(=O)NC1C(O)[C@H](O)C(CO)O[C@H]1O; assay: as above; type: biochemical, Acholeplasma laidlawii; details: acceptor concentration varied, pH 7.0
Method: as §1

Molecule: CC(=O)N[C@H]1C(OP(=O)(O)O)O[C@H](CO)[C@H](O)[C@@H]1O (stereo partly drawn) [GalNAc1-P]
- Activities (kinetic parameters not determined) (AchP [1]): too low

Molecule: CC(=O)NC1C(O)[C@@H](O)C(CO)O[C@@H]1O (stereo partly drawn) [GalNAc, N-acetylgalactosamine]
- AchP activity with acceptor (AchP [2]; Glc1-P as donor): active
- kcat (AchP [3]; donor αGlc1-P 10 mM, acceptor concentration varied): 12.5 ± 0.5 s⁻¹

Molecule: CC(=O)N[C@H]1[C@@H](OP(=O)(O)O)O[C@H](CO)[C@@H](O)[C@@H]1O [GlcNAc1-P, α-N-acetylglucosamine 1-phosphate]
- Km value lower than with Glc1-P as donor (AchP [3]; GlcNAc as acceptor): ~10 fold
- kcat greater than with Glc1-P as donor (AchP [3]; GlcNAc as acceptor): 2 fold

Molecule: CC(=O)NC1C(O)[C@H](O)C(CO)O[C@H]1O (stereo partly drawn) [GlcNAc, N-acetyl-glucosamine]
- AchP activity with acceptor (AchP [2]; Glc1-P as donor): active
- Ki (AchP [3]; donor αGlcNAc1-P 10 mM, substrate inhibition fit): 27.1 ± 3.6 mM

Molecule: CC(=O)NC1C(OC2C(O)C(CO)OC(Oc3ccc4c(C)cc(=O)oc4c3)C2NC(C)=O)OC(CO)C(O)C1O (stereo not drawn) [GlcNAc-β1,3-GalNAc-α1-MU]
- aglycone release after incubation with EngSP [4]: release of both pNP and MU aglycones could be detected

Molecule: CC(=O)NC1C(OC2C(O)C(CO)OC(Oc3ccc([N+](=O)[O-])cc3)C2NC(C)=O)OC(CO)C(O)C1O (stereo not drawn) [GlcNAc-β1,3-GalNAc-α1-pNP]
- aglycone release after incubation with EngSP [4]: release of both pNP and MU aglycones could be detected

Molecule: CC(=O)N[C@H]1[C@H](O[C@H]2[C@H](O)[C@@H](NC(C)=O)C(O)O[C@@H]2CO)O[C@H](CO)[C@@H](O)[C@@H]1O (stereo partly drawn) [GlcNAc-β1,4-GlcNAc, N,N′-diacetylchitobiose]
- AchP activity with acceptor (AchP [2]; Glc1-P as donor): active
- phosphorolysis (substrate cleavage) (AchP [5]): no substrate cleavage could be detected

Molecule: CC(=O)N[C@H]1[C@H](Oc2ccc([N+](=O)[O-])cc2)O[C@H](CO)[C@@H](O)[C@@H]1O [GlcNAc-β1-pNP]
- AchP activity with acceptor (AchP [2]; Glc1-P as donor): active

Molecule: N[C@H]1C(O)O[C@H](CO)[C@H](O)[C@@H]1O (stereo partly drawn) [galactosamine]
- AchP activity with acceptor (AchP [2]; Glc1-P as donor): no activity
- AchP activity with acceptor (AchP [2]; GlcNAc1-P as donor): not

Molecule: O=C[C@H](O)[C@@H](O)[C@@H](O)[C@H](O)CO [galactose, D-galactose]
- AchP activity with acceptor (AchP [2]; GlcNAc1-P as donor): not

Molecule: N[C@H]1C(O)O[C@H](CO)[C@@H](O)[C@@H]1O (stereo partly drawn) [glucosamine]
- AchP activity with acceptor (AchP [2]; Glc1-P as donor): no activity
- AchP activity with acceptor (AchP [2]; GlcNAc1-P as donor): active

Molecule: OC[C@H]1O[C@@H](O[C@H]2[C@H](O)[C@@H](CO)OC(O)[C@@H]2O)[C@H](O)[C@@H](O)[C@@H]1O (stereo partly drawn) [laminaribiose]
- AchP activity with acceptor (AchP [2]; Glc1-P as donor): no activity

B1: AchP (Acholeplasma laidlawii PG-8A) (protein)
chain: MKLKQDVISIYQKISLFESGQLNITKLASGAYYLDDELTLITDPVNSGARFPYAVNGMTIWAYASGYISINHSSYYILPPNLEGKEPFLDFFGIEQDGNNTYPVSLLGVSERNDEIENKRYTVFSKNIAYYITVTKNFLYAVTVYISKDFKIYFNTVAHNLTGETKQITLSSFFNMLFKYDSGESIETKWFKKVSYENNMFIYDAPEDIDRHTRIENYGVVKRHLHTKPKNIQNTTSRIDYVGKRYRSVRNALSIRSLKFEKAPLVTNFTDTAINADLINYEVKAYDTIISSYRIETCHDKDTLNKMMASDLTDKEIKKVYEGLSNTQSYDFDNFGISFKGVNDNRVDDKVLNQFLKLVNYQIHFSSLSSNSGTVFLGVRDVMQQLESSLIWDRKNVRSKILEVLSFIDPSGLPPRQYALPPKEGNPRMDLRPFIDQGLWIISTLHTYLAYTEDYDILNEVCGYYERIEPNSAKKSKVENSVLEHLIRVTNYLVSNIDPSTYGLKALYGDWNDALDGLGLIEGSSGYGNGVSVMATLQLYENLERMIEILKLVDPQNEHINTYEVVRHNLSLGINKYAVVIKQDEKRVLHGWGHDRSYFVGSFNDPDGHSRNSLTSNAFYIISDMIKNTPEMKPHLLHAFHNLDSKYGLKTFDPAMQDFHGFGRIINLPPGTAENAATYVHATLFGVLALYMLGEGDFANEQVLKVLPITKKEMSTSPFIMPNSYVHNEELNMDGESMSDWYTGSANTLLKTLIRGLFGLEVKFDHLRLRPSKAFFSKEATLMVSIGNKLTRIVYKNNNNGNRTFKLNGKVIEAKLDTLSGLLYIDINKSILEHQNVIHIQD
- Km [6]: 71.4 ± 4.1 mM
- kcat [6]: 46.7 ± 0.9 s⁻¹
- kcat/Km [6]: 700 ± 200 M⁻¹ s⁻¹
- Km ([7]; other: donor αGlc1-P 10 mM): 29.9 ± 3.7 mM
- kcat ([7]; other: donor αGlc1-P 10 mM): 24.2 ± 1.6 s⁻¹
- kcat/Km ([7]; other: donor αGlc1-P 10 mM): 800 ± 400 M⁻¹ s⁻¹
- Km ([7]; other: donor αGlcNAc1-P 10 mM): 3.5 ± 0.4 mM
- kcat ([7]; other: donor αGlcNAc1-P 10 mM): 50.8 ± 3.2 s⁻¹
- kcat/Km ([7]; other: donor αGlcNAc1-P 10 mM): 14500 ± 8000 M⁻¹ s⁻¹
